Type in all cases: biochemical
Test [1] addresses T1, urokinase (Homo sapiens, UniProt P00749).
T1 construct: also urine of healthy test persons
Put plainly: Kinetic constants Km and vmax of substrate hydrolysis by urokinase (Lineweaver-Burk). The following applies: per CTA unit, pH 8.4, ionic strength 0.30, 37° C. Here is the method: The enzyme and the substrate are mixed in a buffer solution, and the hydrolysis reaction is followed for 2 to 30 minutes. The concentration of substate [S] is varied, whereas the enzyme concentration is kept constant. If the extinction (OD=optical density) is plotted in a co-ordinate system as a function of time, a curve is obtained the tangent of which at time zero corresponds to the ideal course of the hydrolysis. By means of this tangent the initial rate of the hydrolysis can be determined.
If 1/v is plotted against (1/[S]), a Lineweaver-Burk diagram (cf. "Kurzes Lehrbuch der Biochemie" by P. KARLSON, Georg Thieme-Verlag, Stuttgart, 1967, p. 70) is obtained from which vmax and Km can be determined graphically.
For the determination of the kinetic constants Km and vmax listed in Table I aqueous dilution series of the substrates with concentrations from 0.1 to 2 μmoles/ml were used. […] The value of the quantity of p-nitroaniline formed per minute is a measure for the rate of hydrolysis at a given substrate concentration. […] The kinetic constants Km and vmax were determined from the points of intersection of the curves with the abscissa and the ordinate.

Test [2] addresses T1, urokinase. The test is described as follows: Enzyme quantity splitting substrate I at 1 μmole pNA per minute (Table II), urokinase. Conditions: 37° C., pH 8.4, ionic strength 0.3, substrate concentration 10^-4 mole. Here is the method: (§1) In the first column of Table II are listed the quantities of the various enzymes which split substrate I at a temperature of 37° C., a pH of 8.4, an ionic strength of 0.3 and a substrate concentration of 10^-4 mole with a velocity of 1 μmole per minute. In the second column the corresponding enzyme quantity, expressed in other enzyme units, is indicated.

A further test deals with urine kallikrein. The test is described as follows: Enzyme quantity splitting substrate I at 1 μmole pNA per minute (Table II), urine kallikrein. Here is the method:
BAEE (Benzoyl-L-arginine ethyl ester)--1 BAEE unit of urine kallikrein is that quantity of enzyme which hydrolyzes 1 μmole of benzoyl-L-arginine ethyl ester per minute under standard conditions.
as §1

The test system of another test is human thrombin. Put plainly: Enzyme quantity splitting substrate I at 1 μmole pNA per minute (Table II), thrombin. Here is the method:
NIH is a unit which was standardized by the "US National Institute of Health".
as §1

The test system of the next test is human plasmin. Put plainly: Enzyme quantity splitting substrate I at 1 μmole pNA per minute (Table II), plasmin. The following applies: 37° C., pH 8.4, ionic strength 0.3, substrate concentration 10^-4 mole. As for the experimental part:
CU is the casein unit which is measured on casein under standard conditions.
as §1

Test [3] deals with T2, bovine trypsin (Bos taurus, UniProt P00760).
T2 sequence (P00760 24-246): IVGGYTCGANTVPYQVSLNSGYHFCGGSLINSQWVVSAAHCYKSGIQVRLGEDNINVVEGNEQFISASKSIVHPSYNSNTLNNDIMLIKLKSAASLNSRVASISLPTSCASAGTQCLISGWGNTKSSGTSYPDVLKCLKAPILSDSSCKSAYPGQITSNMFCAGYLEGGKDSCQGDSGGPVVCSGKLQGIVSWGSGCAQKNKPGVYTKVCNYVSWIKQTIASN
The test is described as follows: Enzyme quantity splitting substrate I at 1 μmole pNA per minute (Table II), trypsin. Conditions: 37° C., pH 8.4, ionic strength 0.3, substrate concentration 10^-4 mole. As for the experimental part: NF is the trypsin unit, i.e. that quantity of enzyme which causes a change in the absorption Δ OD of 0.003 per minute, measured on benzoyl-L-arginine ethyl ester under standard conditions (cf. "The National Formulary XII", edited by "The American Pharmaceutical Association", Washington, D.C., 1965, pages 417-418).
as §1

The target of test [4] is T2, bovine trypsin. Put plainly: Activity of bovine trypsin at constant substrate and enzyme concentrations (Table IV). The following applies: substrate concentration 2 × 10^-4 M; pH 8.4, ionic strength 0.30, 37° C., 405 nm. Here is the method:
The results listed in Table IV were obtained under the following experimental conditions: In a measuring vessel 1.7 ml of tris-imidazole buffer having a pH of 8.4 and an ionic strength of 0.30 were mixed at 37° C. with 0.1 ml of an aqueous trypsin solution having a concentration of 2 NF units of trypsin per ml. To the mixture 0.2 ml of a 2×10^-3 molar solution of the substrate to be tested was added. Thereafter, the quantity of p-nitroaniline released from the substrate by the action of the trypsin was determined by measuring the change in the optical density Δ OD per minute at a wave length of 405 nm.

The target of test [5] is T1, urokinase. The test is described as follows: Determination of urokinase concentration with substrate I (ΔOD versus urokinase quantity). Conditions: ΔOD within 10 minutes. As for the experimental part:
In the appended drawing the sole figure represents a graph in which the change in the optical density Δ OD caused by the hydrolytic action of various quantities of urokinase on substrate I within 10 minutes is plotted as a function of the urokinase quantity in a co-ordinate system. From this graph it can be seen that urokinase concentrations can be determined accurately in the range of 1 to 10 CTA/ml. In the determination of the urokinase content in the urine of 14 healthy test persons values of about 8 CTA units per ml of urine were found.

For a further test, the target named is T3, trypsin (Bos taurus, UniProt P00760).
T3 construct: b360 concerns trypsin in duodenal juice
T3 sequence (P00760 24-246): T2 sequence (P00760 24-246)
Put plainly: Determination of trypsin in duodenal juice with substrate. The following applies: per ml of test sample; pH 8.4, ionic strength 0.30, 37° C., 405 nm. Here is the method:
The determination of trypsin in duodenal juice can be carried out for instance as follows: 1.79 ml of tris-imidazole buffer having a pH of 8.4 and an ionic strength of 0.30 are mixed with 0.01 ml of duodenal juice at 37° C. in a measuring vessel. Thereafter, the mixture is rapidly mixed with 0.2 ml of a 2×10^-3 molar solution of a substrate of this invention. The quantity of p-nitroaniline released from the substrate by the action of trypsin is determined by measuring the change in the optical density Δ OD per minute at a wave length of 405 nm. The quantity of p-nitroaniline released per minute or the corresponding change in the optical density is proportional to the trypsin activity. When using the substrate prepared according to Example 10, i.e. N^α -Cbo-C.cyclohexylglycyl-Gly-Arg-pNA.HCl, trypsin can be determined for instance at concentrations as low as 0.01 NF unit per ml of test sample.

[6] abbreviates: 37° C., pH 8.4, ionic strength 0.3, substrate concentration 10^-4 mole.

Counter-ions that a name gives are not always drawn. Non-standard residues stand in square brackets, D forms with d. Residues, ends and D or L forms follow the SMILES beside them. *: point of attachment. pNA = O=[N+]([O-])c1ccc(N*)cc1; Chg = N[C@H](C(=O)O)C1CCCCC1; Cbz = O=C(OCc1ccccc1)*; Bz = O=C(c1ccccc1)*

Consider `CC(C)[C@H](NC(=O)c1ccccc1)C(=O)NCC(=O)N[C@@H](CCCNC(=N)N)C(=O)Nc1ccc([N+](=O)[O-])cc1` [Substrate I, N^α -Bz-Val-Gly-Arg-pNA.HCl] (Bz-Val-Gly-Arg-pNA), for which the Vmax on urokinase [1] is listed as 7.27 × 10^-5 μmole/min. CTA. Besides, the “enzyme quantity releasing 1 μmole of pNA per minute from substrate I, in corresponding other units” value was determined as 20250 CTA on urokinase [2]; 1688 BAEE in the test with urine kallikrein (setting [6]); 2174 NIH in the test with human thrombin (setting [6]); 6850 CU in the test with human plasmin; 36.6 NF at bovine trypsin [3]. In addition, the “splitting by kallikrein present in urine (in words)” value in the test with urine kallikrein (conclusion from Table II) is reported as “split but little”. In the test with human thrombin (conclusion from Table II), the “splitting by thrombin (in words)” value was “split very little and unspecifically”. Besides, on bovine trypsin [4], the “Quantity in nanomoles of p-nitroaniline enzymatically released from the substrate by 1 NF unit of trypsin in 1 minute” value is given as 20,9 nanomoles. The “range of urokinase concentrations that can be determined accurately” value at urokinase [5] fell in the range of 1 to 10 CTA/ml.

Regarding `N=C(N)NCCC[C@H](NC(=O)CNC(=O)[C@@H](NC(=O)OCc1ccccc1)C1CCCCC1)C(=O)Nc1ccc([N+](=O)[O-])cc1` [Substrate X, N^α -Cbo-C.Cyclohexylglycyl-Gly-Arg-pNA.HCl] (Cbz-[Chg]-Gly-Arg-pNA), the “lowest trypsin concentration that can be determined” value at trypsin is on record as at least 0.01 NF unit per ml.

Source of the values: patent publication US4278762A, “Method for the quantitative determination of plasminogen activators” (Pentapharm AG, priority 1976, dated 1981).
